# In patent publication EP0344564A1, “Utilisation of special amines or hindering nitrosamine production” (Eisenbrand, Gerhard, Prof. Dr., priority 1988, dated 1989):
# Assay: Nitrosamine formation in aqueous amine / sodium nitrite mixture, comparison with THEDA (Beispiel 4)
# Assay type: physicochemical
# Conditions: 20 mM Amin, 20 mM Natriumnitrit, 4 Stunden, 37 °C, pH 4
smiles,measurement,value
"CC(O)CN(CCN(CC(C)O)CC(C)O)CC(C)O (stereo not shown) [THEDA, N,N,N′,N′-Tetrakis(2-hydroxypropyl)ethylene-diamin]",% gebildetes Nitrosamin bezogen auf eingesetztes Amin,"1,0%"
